Paper PMC6934184, “Selective DNA-PKcs inhibition extends the therapeutic index of localized radiotherapy and chemotherapy” (The Journal of Clinical Investigation, 2019)

How the values were obtained:
HAP-1 DNA-PK–null cells = assay: clonogenic survival with IR; assay type: cell-based, human; conditions: 5 μM concomitant
Experimental: (§1) Exponentially growing HAP-1 DNA-PK proficient or deficient cells were seeded into 6-well plates and allowed to re-attach. Cells were then incubated with vehicle (DMSO) or NU5455 (5 µM) 1 hour prior to irradiation and for a further 24 hours post-irradiation. Cells were then washed in PBS and incubated in drug-free medium to allow for colony formation.
(§2) To quantify the number of proliferating versus confluent cells, cells were pulsed with 5-ethynyl-2’-deoxyuridine (EdU), and labeled using the Click-iT Plus EdU Alexa Fluor 647 Flow Cytometry Assay Kit together with FxCycle Violet Stain to label DNA (both Thermo Fisher) following the manufacturer’s instructions. Samples of cells taken from tho se used in the clonogenic assay were used to confirm the percentage of cells in each cell cycle phase.
(§3) Samples were acquired on a Symphony A5 flow cytometer (Becton Dickinson, UK).
(§4) Cell cycle phase status was also confirmed by microscopy, using cells grown on coverslips i n 6-well plates. […] Coverslips were mounted using Prolong Glass with NucBlue (ThermoFisher) and images were acquired on the Leica TCS SP8 confocal fluorescence […]
(§5) Treated cells were fixed with 10% (w/v) trichloroacetic acid (Fisher) at 4°C overnight. Cells were stained with sulphorhodamine B (SRB, 0.4% (w/v) in water), and cell density quantified

[1] = system: HAP-1 cells that express 1 copy of PRKDC; assay: clonogenic survival with IR; assay type: cell-based, human; conditions: 5 μM concomitant
Experimental: as §1, §2, §3, §4, §5

DNA-PK = DNA-PK (Homo sapiens, UniProt P78527); assay: radiation-induced phospho-DNA-PK Ser2056 in MCF7 cells, Western blot; assay type: cell-based; set-up: endogenous in cells; host or cells: MCF7; conditions: 1 h pretreatment, 30 min after 10 Gy IR, read-out: IC50, radiation-induced activation of DNA-PK (phospho–DNA-PK Ser2056)
Experimental: Exponentially growing MCF7 cells were exposed to a range of concentrations of NU5455 and NU7441 (0.03–10 μM) for 1 hour. To assess the ability of NU5455 and NU7441 to inhibit autophosphorylation of DNA-PKcs at Ser2056, cells were treated with 10 Gy irradiation and incubated for 30 minutes. Alternatively, to investigate the effects of NU5455 and NU7441 against PI3K-dependent phosphorylation of AKT at Ser473, cells were treated with 50 ng/mL insulin-like growth factor-1 (IGF-1; Invitrogen) for 30 minutes. Cell lysates were prepared for the detection of p–DNA-PKcs Ser2056 and total DNA-PKcs, or p–AKT Ser473 and total AKT, respectively, using Western blotting. […]
Protein lysates were quantified using the Pierce BCA Protein Assay (ThermoFisher). […]
Membranes were then washed in TBST and incubated with HRP-conjugated goat anti-mouse or anti-rabbit antibodies (P0447 and P0448 respectively, Dako) in 5% (w/v) milk/TBST at room temperature for 1-2 hours. Conjugates were detected using Clarity Western ECL Substrate (BioRad) and chemiluminescence imaged using the Fuji LAS-3000 Luminescent Image Analyzer System (Fujifilm). […]
Alternatively, basal pAKT Ser473 levels were subtracted from all other pAKT bands, and pAKT band intensity calculated relative to total AKT expression and given as a percentage relative to IGF-1 stimulated, DMSO-treated cells. […]

CN(C(=O)CN1CCOCC1)c1ccc2sc3c(-c4cccc5c(=O)cc(N6CC7CCC(C6)O7)oc45)cccc3c2c1 [NU5455]
response to IR (clonogenic) (HAP-1 DNA-PK–null cells): did not alter the response | clonogenic cell-killing effect of 1–4 Gy IR [1]: markedly increased | IC50 (DNA-PK): 168 nM
